Entries after “also recorded” stand apart in the source; their conditions may differ. Where two headings read alike, the source gives them in different places. Where a SMILES comes first, the peptide text is derived from it. The star is where a group is joined. Cbz = O=C(OCc1ccccc1)*
How the values were obtained:
Type in all cases: cell-based, human
WT p53 in U2OS cells [1] = assay: Immunofluorescent staining for p53 inclusions, InCell Analyzer 2000; details: >1000 cells/condition
From the text: It is becoming increasingly evident that resistance is also seen in cancers harboring wild-type p53, which might be explained by a change of conformation of wt p53 into a “mutant configuration.”^76 Cell lines harboring wt p53 were used and enhanced the expression using previously described chemotherapeutic agents. […] When performing immunofluorescent staining for p53 in U2OS cells, increased accumulation of non-soluble, inclusions of p53 in the cytoplasm was subsequently observed.

WT p53 in U2OS cells [2] = assay: Western blot of p53 in U2OS cells treated with chemotherapeutic agents
WT p53 in U2OS cells [3] = assay: Native page analysis of p53 in treated U2OS cells
mutant p53 = assay: BN-PAGE of p53 mutants over-expressed in SaOS-2 cells with MG-132; details: I254R double mutants
Description: SaOS-2 or Hela cells were rinsed with ice-cold 20 mM Tris-HCl, 150 mM NaCl, pH 7.4 (TBS) and lysed with 18 mM 3-[(3-cholamidopropyl) dimethylammonio]-1-propanesulfonic acid (CHAPS) in TBS with DNase and protease inhibitors for 30 minutes at 21° C. or on ice, respectively. Whole-cell lysate was fractionated by both SDS-PAGE (NuPAGE system, Invitrogen) and Blue-Native PAGE (NativePAGE system, Invitrogen) following the product manuals. For SDS-PAGE, sample was denatured at 95° C. for 10 minutes in the presence of 2% sodium dodecyl sulfate (SDS) and then fractionated by 10% Bis-Tris gels in MES-SDS running buffer (0.1% SDS, 50 mM MES, and 50 mM Tris-Base). For Blue-Native PAGE, cell lysate was added with 20% glycerol and 5 mM Coomassie G-250 before loading onto 3-12% Novex Bis-Tris gradient gels. […] After three times of rinsing with TBS containing 0.1% TWEEN® 20 (TBST), the membrane was stained with horseradish peroxidase (HRP)-conjugated goat anti-mouse IgG (Promega) and visualized with electrochemical luminescence (ECL) system. […]
In the degradation stability test, protein synthesis was blocked by 60 μg/mL cycloheximide 24 hours after transfection, and cells were lysed 0, 3, 6, 12, 24 and 48 hours after the addition of cycloheximide. […] Cells were analyzed by immunofluorescence after 24 hours.

Row | SMILES | increase in cytoplasmic aggregates of p53 (WT p53 in U2OS cells [1]) | p53 expression level (Western blot) (WT p53 in U2OS cells [2]) | p53 expression level (Western blot) (WT p53 in U2OS cells [2]; listed as Cisplatin) | p53 high molecular-weight species (native page) (WT p53 in U2OS cells [3]) | proteasomal degradation of mutant p53 (mutant p53)
1 | N.N.[Cl][Pt][Cl] [cisplatin] | greater than three-fold increase | started to accumulate WT p53 | increased expression levels of p53 | part of p53 ran as a high molecular weight smear; also recorded: high molecular-weight species of p53 | 
2 | CC(C)C[C@@H](C=O)NC(=O)[C@H](CC(C)C)NC(=O)[C@H](CC(C)C)NC(=O)OCc1ccccc1 [MG132] (Cbz-Leu-Leu-Leu-aldehyde) |  |  |  | smear was comparable | inhibited proteasomal degradation of mutant p53

Source: patent US9389219B2, “Methods for screening inhibitors of tumor associated protein aggregation” (Vrije Universiteit Brussel, priority 2011, dated 2016)
